# According to patent US20240398775A1, “PHARMACEUTICAL COMPOSITION FOR USE IN TREATING COGNITIVE DECLINE OR FOR USE IN TREATING OVERWEIGHT OR OBESITY” (University of the Ryukyus, priority 2021, published 2024):
# What was measured:
# [1] = system: NMDA receptor (NMDAR); experiment: Ca2+ imaging (Fluo-3) of hippocampal brain slices, NMDA + glycine application (NMDA reaction); assay type: cell-based, mouse; conditions: for function of NMDAR in EC, CA1, CA2, CA3 and DG: leptin 100 nM
# [2] = system: Ca2+ permeable AMPAR (CP-AMPAR); experiment: Ca2+ imaging (Fluo-3) of hippocampal brain slices, AMPA + CTZ application (CP-AMPA reaction); assay type: cell-based, mouse
# [3] = system: NL-G-F(−/−) mice; experiment: Hippocampus function-dependent fear conditioning test in NL-G-F(−/−) mice; assay type: in vivo, mouse; conditions: perampanel alone 5 mg/kg or 10 mg/kg
# Description: Contextual fear conditioning was applied with slight modifications to published protocols (50). Mice were transferred to the animal experimental room and allowed to acclimatize for at least 30 minutes prior to contextual fear conditioning training. Next, the mice were placed in a foot shock system model MK-450 MSQ (Muromachi Kikai Co., Ltd., Japan), searching was performed for 2 minutes, and then 3 electric foot shocks (0.8 mA, 2 sec, 2 min interval) were performed. After mice were left in the apparatus for an additional 1 minute, the animals were removed.
# NL-G-F(−/−) mice, a dementia model, were administered with memantine (mema), exercise, memantine and exercise, memantine and perampanel, and perampanel alone (5 mg/kg or 10 mg/kg), and subjected to behavioral experiments. As the behavior test, a novel object recognition test and a hippocampus function-dependent fear conditioning test were performed. Memantine is an antagonist of the NMDA receptor, but has distinct properties from other NMDA receptor antagonists (refer to Hokama Y., et al., Neuro Oncology, 2022, noac162). That is, memantine is a drug that works only when glutamic acid is excessively present in the brain.
molecule,measurement,setting,value
leptin: a hormone that regulates energy expenditure,"function of NMDAR in EC, CA1, CA2, CA3 and DG",[1]; HFD mice orally administered PER,significantly enhanced
same,"function of NMDAR in EC, CA1, CA2, CA3 and DG",[1]; ob/ob mice orally administered PER,significantly enhanced
CC(=O)OCOC(=O)CN(CC(=O)OCOC(C)=O)c1ccccc1OCCOc1ccccc1N(CC(=O)OCOC(C)=O)CC(=O)OCOC(C)=O [BAPTA-AM],NMDA receptor reactivity to NMDA (50 μM) and glycine (10 μM),"[1]; brain slices of 2 w HFD mice treated 60 min with 3 μM BAPTA-AM, n=3",restoration of reactivity
Cc1cn2c(n1)Cc1ccc(Cl)cc1C(c1ccc(N)cc1)=N2 [GYKI 47261],increase in [Ca2+]i via AMPAR,[2],completely repressed
same,increase in [Ca2+]i via pathological AMPARs,[2],disappeared
same,"inhibitory effect on CP-AMPAR in EC, CA1, CA2, CA3 and DG",[2],significant inhibitory effect
C[C@H](CCC(=O)O)C[C@H](C)C[C@H](C)C(=O)/C=C(\O)[C@H](C)C[C@H](C)C/C=C/[C@@H](C)[C@@H](O)[C@@H](C)[C@@H](O)C[C@@H]1CC[C@@](C)([C@H]2CC[C@@](C)([C@@H](C)O)O2)O1 [ionomycin],NMDA receptor reactivity due to addition of NMDA and glycine,"[1]; slices of 14 to 16 week old mice on normal diet, 2 mM Ca2+, pretreated with 1 μM ionomycin for 10 min, n=4",disappeared
"N[C@H](CCCP(=O)(O)O)C(=O)O [APV, D-(−)-2-amino-5 phosphonovaleric acid]",NMDA receptor reactivity to NMDA and glycine,"[1]; 2 w HFD slices under calcium ion-free (0 mM Ca) conditions, in the presence of APV",disappeared
same,NMDA receptor reactivity to NMDA and glycine,"[1]; BAPTA-AM-treated 2 w HFD slices, APV 50 μM simultaneously with NMDA and glycine",abolished
"NCCCNCCCCNCCCNC(=O)Cc1cccc2ccccc12 [NASPM, N-[3-[[4-[(3-aminopropyl)amino]butyl]amino]propyl]-1-naphthaleneacetamide]",increase in [Ca2+]i via AMPAR,[2],completely repressed
same,increase in [Ca2+]i via pathological AMPARs,[2],disappeared
same,"inhibitory effect on CP-AMPAR in EC, CA1, CA2, CA3 and DG",[2],significant inhibitory effect
CC12CC3CC(C)(C1)CC(N)(C3)C2 [memantine],cognitive function in hippocampus function-dependent fear conditioning test,[3],improvement in cognitive function
